Counter-ions that a name gives are not always drawn. Like-named read-outs stand apart in the source and are kept apart here.
Legend:
[1] = tested on: P388 murine leukemia cells; experiment: MTT dose response cytotoxicity, P388 (Table 1, FIG. 5); assay type: cell-based; settings: Mus musculus, read-out: DRUG IC50
Procedure: (§1) Cytotoxicity experiments on AHVB were performed as direct comparisons with vincristine and navelbine in order to assess its inherent antineoplastic profile against a variety of tumour cell types relative to other relevant vinca alkaloids. The cytotoxicity of AHVB was investigated in vitro against a panel of tumour cell lines of varying lineage in order to determine the specificity of its antitumour activity with respect to cell type. The tumour lines studied were P388 lymphocytic leukemia (a murine lymphocytic leukemia), Noble (Nb) rat U17 lymphoma, MCF7 human breast carcinoma, H460 human non-small cell lung carcinoma, K562 human erythrokeukemia and LS180 human colon carcinoma based on established NCI in vitro new anticancer drug cytotoxicity screening protocols.
(§2) Standard dose response cytotoxicity assays (R. Mosmass, J. Immunol. Meth., 65:55-64, 1983) were utilized to determine the IC50 (drug concentration required to induce 50% inhibition of tumour cell growth) for vincristine, navelbine and AHVB. The indicated cell lines were obtained from either the ATCC or NCI tumor repository and were cultured in tissue culture media by standard techniques well known to those skilled in the art, prior to dilution to a defined cell concentration required for the studies in 96 well plates.
(§3) A wide range of drug concentrations were exposed to tumour cells growing at log phase in 96-well microtitre plates. Cell concentrations depended on the cell line as well as the length of time to be cultured. Typically, P388 cells were plated at a concentration of 30,000, 2,000 and 750 cells per well for studies lasting 1, 3 and 7 days, respectively MCF7 cells were plated at a concentration of 7,000 and 1,500 cells per well for studies lasting 3 and 7 days, respectively. H460 cells were plated at a concentration of 2,500 and 1,000 cells per well for studies lasting 3 and 7 days, respectively. K562 cells were plated at a concentration of 1,500 and 10,000 cells per well for studies lasting 1 and 3 days, respectively. LS180 cells were plated at a concentration of 5,000 and […] cells per well for studies lasting 3 and 7 days, respectively. After plating all cell lines were incubated (CO2 incubator at 37° C., 5% CO2) for 24 hours prior to addition of the cytotoxic agent (See Table 1). Subsequently the plates were incubated for the indicated time period. At specified times, cells were washed and subsequently exposed to the dye inclusion marker MTT (3-(4,5-dimethylthiazol-2-yl)-2,5diphenyl tetrazolium), which accumulated into viable cells. MTT was added to the cells at a final concentration of 50 μg per well. After a 4 hour incubation, the cells were washed free of media and unreacted MTT, prior to addition of DMSO which was required to solubilize the insoluble formazan precipitate that formed in viable cells. After the sample was mixed through repeated pipetting, the colored product was measured using a plate reader operating at 570 nm. The absorbance values obtained for cells cultured in the absence of drug was assumed to represent 100% viability. Experiments were repeated to substantiate any differences noted between […] and other vinca alkaloids.
A cytotoxicity curve was generated to estimate the IC50 of vincristine, navelbine and AHVB in the murine P388 cell line (see FIG. 5). In this study, P388 cells derived from an ascitic tumor grown in BDF1 were first separated from red cells employing Ficoll-Paque. Isolated while cells were washed twice then placed in serum containing tissue culture media (1×10^5 cells per ml of RPMI 1640 supplemented with L-glutamine, penicillin, streptomycin and 10% fetal bovine serum) and cultured for 2 hours. All non adherent cells were collected and that cell population was defined as P388 cells and used for cytotoxicity assays 24 hours later. Cytotoxicity assays were performed as described in the notes to Table 1. The drug concentrations used are indicated on the X-axis. […]

[2] = tested on: K562 human erythroleukemia; experiment: MTT dose response cytotoxicity, K562 (Table 1); assay type: cell-based; settings: read-out: DRUG IC50
Procedure: as §1, §2, §3

[3] = weight loss / toxicity in BDF1 mice bearing P388 tumours (FIG. 4); assay type: in vivo
Procedure: Groups (five mice per group) of female BDFI mice (Charles Rivers, Canada) were injected (intraperitoneal) with 10^6 P388 cells (as described above). One day after tumor cell inoculation, the mice were given a bolus intravenous injection of indicated drug via the lateral tail vein. Control groups were injected with saline. Free drug samples were prepared on the day of injection such that the final concentrations were sufficient to deliver the indicated drug dose in a volume of 200 μl. All dilutions were made using 0.9% Sodium Chloride Injection USP. The mice were briefly (less than 30 sec.) restrained during intravenous injections. Dilation of the vein was achieved by holding the animals under a heat lamp for a period of between five and ten minutes. Following administration of the test articles, animals were weighed daily for fourteen days and monitored for signs of stress twice daily for the first 14 days (once daily on weekends) and once daily for the remainder of the study. Severely distressed animals were terminated by CO2 asphyxiation and the time of death was recorded to occur on the following day. Although complete dose titrations were completed for each drug, the data shown in FIG. 6 is that obtained after administration of the free drugs at their maximum tolerated dose. This was 3, 40 and 40 mg/kg for vincristine, navelbine and AHVB, respectively.
After treating mice (bearing the P388 tumor) with a single dose of the indicated drug, animals were examined twice daily for the first 14 days (once daily on weekends). Weight gain in the control is an indication of tumor progression.
The studies were conducted as described for FIG. 6. The maximum tolerated dose of AHVB (40 mg/kg) as specified in these studies reflects a very acute (within 1 hour) toxic reaction that limits further dose excalatin for i.v. administration of AHVB.

[4] = cited from earlier work; for dose limiting toxicity: humans
[5] = 24 h, P388, exposure time 1 day
[6] = 72 h, P388, exposure time 3 days
[7] = 168 h, P388, exposure time 7 days
[8] = 24 h, K562, exposure time 1 day
[9] = 72 h, K562, exposure time 3 days

With `CCC1=CC2CN(CCc3c([nH]c4ccccc34)C(C(=O)OC)(c3cc4c(cc3OC)N(C)C3C(O)(C(=O)OC)C(OC(C)=O)C5(CC)C=CCN6CCC43C65)C2)C1` (centres unmarked) [AHVB, 3',4'-anhydrovinblastine] the IC50 ([1]; P388, 24 h) was 140 ± 53 nM, the IC50 ([1]; P388, 72 h) was 15 ± 8.7 nM and the IC50 ([1]; P388, 168 h) was 20 nM. The IC50 ([2]; K562, 24 h) was greater than 50 nM, the IC50 ([2]; K562, 72 h) was 18.8 ± 8.8 nM and the “time of very acute toxic reaction that limits dose escalation” value ([3]; i.v., at maximum tolerated dose 40 mg/kg) was no more than 1 h. For the same compound, the “toxicity ranking (vinca alkaloid induced weight loss)” value ([3]; single i.v. injection at maximum tolerated dose, AHVB 40 mg/kg) was “least toxic of the three drugs evaluated”.

With `CCC1=C[C@@H]2CN(C1)Cc1c([nH]c3ccccc13)[C@@](C(=O)OC)(c1cc3c(cc1OC)N(C)[C@H]1[C@@](O)(C(=O)OC)[C@H](OC(C)=O)[C@]4(CC)C=CCN5CC[C@]31[C@@H]54)C2` [navelbine, 3',4'-didehydro-4'-deoxy-C'-norvincaleukoblastine-di-L-tartrate] the IC50 [1, 5] was 20 ± 10 nM, the IC50 [1, 6] was 0.7 ± 0.3 nM and the IC50 [1, 7] was 2.5 nM. For the same compound, the IC50 [2, 8] was greater than 50 nM, the IC50 [2, 9] was 2.5 ± 2.2 nM and the “toxicity at maximum tolerated dose” value ([3]; i.v., compared with acute toxicity of AHVB) was “more prolonged toxicity”. For the same compound, the dose limiting toxicity [4] was “hematological toxicities and not neurological side effects”, the local side effects ([4]; intravenous) was “phlebitia or extravasion injury as it is a moderate vasicant” and the “incidence of constipation, vomiting, diarrhea, anorexia, and stomatitis” value ([4]; patients, relative to nausea) was “slightly lesser fraction”. For the same compound, the “incidence of mild to moderate nausea” value ([4]; patients) was “roughly one-third” and the “incidence of mild to moderate peripheral neuropathy (paresthesia and hypesthesia)” value ([4]; single agent) was 10 % of patients.

For `CC[C@]1(O)C[C@H]2CN(CCc3c([nH]c4ccccc34)[C@@](C(=O)OC)(c3cc4c(cc3OC)N(C=O)[C@H]3[C@@](O)(C(=O)OC)[C@H](OC(C)=O)[C@]5(CC)C=CCN6CC[C@]43[C@@H]65)C2)C1` [vincristine, Sulfate of 22-oxovincaleukoblastine], the IC50 [1, 5] was 11 ± 3.6 nM, the IC50 [1, 6] was 1 ± 0.3 nM and the IC50 [1, 7] was 2 nM. The IC50 [2, 8] was greater than 50 nM, the IC50 [2, 9] was 1.5 ± 0.4 nM and the dose limiting toxicity [4] was “peripheral neuropathy (in the absence of hematological toxicity)”. The “other adverse reactions reported” value ([4]; i.v.) was “abdominal cramps, ataxia, foot drop, weight loss, optic atrophy with blindness, transient cortical blindness, fever, cranial nerve manifestations, parehesia and numbness of the digits, polyuria, dysuria, oral ulceration, headache, vomiting, diarrhea, and intestinal necrosis and/or perforation”, the intrathecal administration outcome ([4]; intrathecal) was “uniformly fatal” and the “adverse reactions that can occur with single weekly doses” value ([4]; single weekly doses, i.v.) was “leukopenia, neuritic pain, constipation, and difficulty in walking”. For the same compound, the “most common adverse reaction” value ([4]; single weekly doses) was “hair loss” and the “most troublesome adverse reactions” value ([4]; single weekly doses) was “neuromuscular in origin”.

— patent US6011041A, “Use of anhydrovinblastine” (priority 1996, dated 2000)
